Tests used:
[1] = Cynomolgus monkey tolerability, body and organ weight measurements (Example 34); format: in vivo; conditions: cynomolgus monkeys, 35 mg/kg subcutaneously; for Heart weight / Kidney weight / Liver with gallbladder weight / Spleen weight: necropsy; for Terminal Body Weight: prior to necropsy
Protocol: Cynomolgus monkeys were treated with Ionis modified oligonucleotides selected from studies described in the Examples above. Modified oligonucleotide tolerability was evaluated.
During the study period, the monkeys were observed twice daily for signs of illness or distress. Any animal experiencing more than momentary or slight pain or distress due to the treatment, injury or illness was treated by the veterinary staff with approved analgesics or agents to relieve the pain after consultation with the Study Director. Any animal in poor health or in a possible moribund condition was identified for further monitoring and possible euthanasia. Scheduled euthanasia of the animals was conducted on day 86 approximately 48 hours after the last dose by exsanguination while under deep anesthesia. The protocols described in the Example were approved by the Institutional Animal Care and Use Committee (IACUC).
To evaluate the effect of Ionis oligonucleotides on the overall health of the animals, body and organ weights were measured. Terminal body weight was measured prior to necropsy.

Yap1 mRNA [2] = assay: Inhibition of human Yap1 mRNA in epidermoid carcinoma A-431 xenograft tumors (Example 27); format: in vivo; conditions: A-431 xenografts in NCr-Foxn1nu mice, 6-8 hours post final dose, relative to PBS
Protocol: An epidermoid carcinoma A-431 xenograft tumor model was used to evaluate activity of modified oligonucleotides targeted to human Yap1. Five million A-431 cells in 30% matrigel were implanted subcutaneously into the flanks of female NCr-Foxn1nu mice (from Taconic) at 4-6 weeks of age. When tumors reached an average volume of 40 mm^3, approximately two weeks post-implantation, groups of four mice each were administered at either 25 mg/kg or 50 mg/kg daily with modified oligonucleotides for […] (5 doses). Tumors were collected 6-8 hours post final dose and tested for Yap1 mRNA knockdown by RT-qPCR. Yap1 mRNA levels were measured as previously described using the Human Yap1 primer-probe set RTS4814. Yap1 mRNA levels were normalized to actin-beta content, as measured by primer probe set RTS5002. Results are presented in the tables below as percent control of the amount of Yap1 mRNA relative to PBS treated animals (% control).

Yap1 mRNA [3] = assay: Inhibition of human Yap1 mRNA in squamous cell carcinoma CAL27 xenograft tumors (Example 28); format: in vivo; conditions: CAL27 xenografts in NCr-Foxn1nu mice, relative to PBS treated
Protocol: A squamous cell carcinoma CAL27 xenograft tumor model was used to evaluate activity of modified oligonucleotides targeted to human Yap1. Five million CAL27 cells in 30% matrigel were implanted subcutaneously into the flanks of female CrTac:NCr-Foxn1nu mice (from Taconic) at 4-6 weeks of age. Groups of four mice each were administered with either 15 mg/kg or 30 mg/kg of modified oligonucleotides daily for five days after tumor size had reached ˜100 mm^3 (about 3 weeks post implantation). Tumors were collected and tested for Yap1 mRNA knockdown by RT-qPCR. Yap1 mRNA levels were measured as previously described using the Human Yap1 primer-probe set RTS4814. Yap1 mRNA levels were normalized to actin-beta content, as measured by primer probe set RTS5002. Results are presented in the tables below as percent control of the amount of Yap1 mRNA relative to PBS treated […].

[4] = rat, in vivo, sc, 50 mg/kg
Protocol: Male Sprague-Dawley rats were maintained on a 12-hour light/dark cycle and fed ad libitum with Purina normal rat chow. Groups of 4 Sprague-Dawley rats each were weekly injected subcutaneously with 50 mg/kg of Ionis oligonucleotide for 6 weeks (total 7 doses). Forty-eight hours after the last dose, the rats were euthanized; and organs, urine and plasma were harvested for further analysis.
To evaluate the effect of Ionis oligonucleotides on kidney function, urinary levels of total protein and creatinine were measured using an automated clinical chemistry analyzer (Hitachi Olympus AU400c, Melville, N.Y.).

[5] = Cynomolgus monkey tolerability, coagulation (Example 34); format: in vivo; conditions: cynomolgus monkeys, 35 mg/kg subcutaneously, day 44
Protocol: To evaluate effect of Ionis modified oligonucleotides on coagulation in cynomolgus monkeys, blood samples of approximately 0.9 mL were collected from each of the available study animals on day 44. The samples were collected in tubes containing 3.2% sodium citrate. Coagulation parameters tested include Activated partial thromboplastin time (APTT), prothrombin time (PT) and Figrinogen (FIB).

[6] = Cynomolgus monkey tolerability, kidney and liver function markers (Example 34); conditions: cynomolgus monkeys, 35 mg/kg subcutaneously, day 44
Yap1 mRNA [7] = assay: Dose-dependent inhibition of human Yap1 in SNU-449 cells (Example 9, RTS36584); format: cell-based; conditions: free uptake; for % UTC (Yap1 mRNA): approximately 48 hours; for IC50: linear regression on a log/linear plot
In short: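 Read-out was Yap1 mRNA (primer-probe RTS36584) normalised to total RNA by RIBOGREEN, given as % of untreated cells, with IC50 fitted by linear regression of log/linear data. Oligonucleotides were dosed by free uptake to SNU-449 cells, 10,000/well, for ~48 h.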

Substance | Heart weight [1] [g] | Kidney weight [1] [g] | Liver with gallbladder weight [1] [g] | Spleen weight [1] [g] | Terminal Body Weight [1] [g] | Yap1 mRNA in tumors, % control (Yap1 mRNA [2]; 25 mpk daily (5 doses)) [% control] | Yap1 mRNA in tumors, % control (Yap1 mRNA [2]; 50 mpk daily (5 doses)) [% control] | Yap1 mRNA in tumors, % UTC (Yap1 mRNA [3]; 15 mg/kg daily for five days) [% UTC] | Yap1 mRNA in tumors, % UTC (Yap1 mRNA [3]; 30 mg/kg daily for five days) [% UTC] | URINE P/C ratio (total protein to creatinine ratio) [4] | APTT [5] [s] | FIB [5] [mg/dL] | PT [5] [s] | ALB [6] [g/dL] | ALP [6] [IU/L] | ALT [6] [IU/L] | AST [6] [IU/L] | BUN [6] [mg/dL] | CREA [6] [mg/dL] | GGT [6] [IU/L] | other results
1198728 (TATTAGAGTATGTGGC; modified gapmer, further chemistry not given here) [compound 1198728] | 10 | 15 | 65 | 5 | 2722 | 47 | 39 | 77 | 56 | 7 | 18 | 242 | 9 | 4.1 | 1165 | 58 | 92 | 26 | 0.9 | 59 | GLO [6]: 3.2 g/dL; GLU [6]: 95 mg/dL; HDL [6]: 95 mg/dL; LDL [6]: 57 mg/dL; TBIL [6]: 0.3 mg/dL; TG [6]: 24 mg/dL; TP [6]: 7.3 g/dL; % UTC (Yap1 mRNA) (Yap1 mRNA [7]; 31.3 nM): 51 % UTC; % UTC (Yap1 mRNA) (Yap1 mRNA [7]; 125.0 nM): 28 % UTC; % UTC (Yap1 mRNA) (Yap1 mRNA [7]; 500.0 nM): 9 % UTC; % UTC (Yap1 mRNA) (Yap1 mRNA [7]; 2000.00 nM): 3 % UTC; IC50 (Yap1 mRNA [7]): < 30 nM
1198605 (GTAATATTGCAATCTG; modified gapmer, further chemistry not given here) [compound 1198605] | 11 | 15 | 67 | 4 | 2968 | 32 | 30 | 65 | 48 | 28 | 23 | 236 | 9 | 4.0 | 1445 | 40 | 58 | 22 | 0.8 | 85 | GLO [6]: 2.7 g/dL; GLU [6]: 69 mg/dL; HDL [6]: 115 mg/dL; LDL [6]: 57 mg/dL; TBIL [6]: 0.2 mg/dL; TG [6]: 25 mg/dL; TP [6]: 6.7 g/dL; % UTC (Yap1 mRNA) (Yap1 mRNA [7]; 31.3 nM): 57 % UTC; % UTC (Yap1 mRNA) (Yap1 mRNA [7]; 125.0 nM): 27 % UTC; % UTC (Yap1 mRNA) (Yap1 mRNA [7]; 500.0 nM): 7 % UTC; % UTC (Yap1 mRNA) (Yap1 mRNA [7]; 2000.00 nM): 1 % UTC; IC50 (Yap1 mRNA [7]): 30 nM
1198623 (CTAAGTAAGGTTTCCC; modified gapmer, further chemistry not given here) [compound 1198623] | 9 | 13 | 62 | 3 | 2790 | 43 | 36 | 52 | 44 | 5 | 17 | 229 | 10 | 4.2 | 916 | 50 | 47 | 26 | 0.8 | 59 | GLO [6]: 3.0 g/dL; GLU [6]: 70 mg/dL; HDL [6]: 87 mg/dL; LDL [6]: 50 mg/dL; TBIL [6]: 0.2 mg/dL; TG [6]: 34 mg/dL; TP [6]: 7.2 g/dL; % UTC (Yap1 mRNA) (Yap1 mRNA [7]; 31.3 nM): 48 % UTC; % UTC (Yap1 mRNA) (Yap1 mRNA [7]; 125.0 nM): 24 % UTC; % UTC (Yap1 mRNA) (Yap1 mRNA [7]; 500.0 nM): 5 % UTC; % UTC (Yap1 mRNA) (Yap1 mRNA [7]; 2000.00 nM): 1 % UTC; IC50 (Yap1 mRNA [7]): < 30 nM
1198831 (CACTTTTACATTAGGA; chemically modified gapmer, further chemistry not given here) [compound 1198831] | 11 | 14 | 65 | 4 | 2788 | 47 | 37 | 70 | 48 | 17 | 18 | 209 | 10 | 3.9 | 1096 | 48 | 63 | 26 | 0.7 | 65 | GLO [6]: 2.8 g/dL; GLU [6]: 73 mg/dL; HDL [6]: 108 mg/dL; LDL [6]: 63 mg/dL; TBIL [6]: 0.3 mg/dL; TG [6]: 22 mg/dL; TP [6]: 6.7 g/dL; % UTC (Yap1 mRNA) (Yap1 mRNA [7]; 31.3 nM): 74 % UTC; % UTC (Yap1 mRNA) (Yap1 mRNA [7]; 125.0 nM): 33 % UTC; % UTC (Yap1 mRNA) (Yap1 mRNA [7]; 500.0 nM): 10 % UTC; % UTC (Yap1 mRNA) (Yap1 mRNA [7]; 2000.00 nM): 4 % UTC; IC50 (Yap1 mRNA [7]): 100 nM
1198872 (TGTATGTCAGAAGAGT; chemically modified gapmer, further chemistry not given here) [compound 1198872] | 12 | 15 | 63 | 4 | 3126 | 34 | 26 | 55 | 38 | 8 | 21 | 206 | 10 | 4.0 | 1098 | 48 | 94 | 27 | 0.9 | 79 | GLO [6]: 3.1 g/dL; GLU [6]: 80 mg/dL; HDL [6]: 114 mg/dL; LDL [6]: 60 mg/dL; TBIL [6]: 0.3 mg/dL; TG [6]: 19 mg/dL; TP [6]: 7.1 g/dL; % UTC (Yap1 mRNA) (Yap1 mRNA [7]; 31.3 nM): 49 % UTC; % UTC (Yap1 mRNA) (Yap1 mRNA [7]; 125.0 nM): 21 % UTC; % UTC (Yap1 mRNA) (Yap1 mRNA [7]; 500.0 nM): 6 % UTC; % UTC (Yap1 mRNA) (Yap1 mRNA [7]; 2000.00 nM): 1 % UTC; IC50 (Yap1 mRNA [7]): < 30 nM

Source: patent US11214803B2, “Modulators of YAP1 expression” (Ionis Pharmaceuticals, Inc., priority 2019, dated 2022)
